This assay has as its target SARS-CoV-2 main protease (M^pro) (Severe acute respiratory syndrome coronavirus 2, UniProt P0DTD1). The assay is described as follows: Rapid-Fire MS Biochemical Assay measuring Mpro activity (5 nM Mpro). The following applies: Mpro inhibition, 5 μM substrate peptide, 120 min.
The mark [1] stands for this setting: Table 1B, read-out: Rapid-Fire Assay IC50.

SMILES strings stand for the structures. Read-outs that look alike come from different tables or passages of the source. Where only a bound is given, the exact number is not on record here.

A word on the IC50: it is the point on the concentration scale where inhibition reaches its midpoint.

For the compound `COc1cc(C(F)(F)F)ccc1N1C[C@H](C#N)N(c2cncc3ccccc23)C1=O` (single isomer, unassigned) [Compound 12a], the IC50 under setting [1] is under 20 nM.
Same read-out and setting: the same measure for `N#C[C@H]1CN([C@@H]2CCN(C(=O)CO)C2)C(=O)N1c1cncc2ccccc12` (single isomer, unassigned) [Compound 25a]: 200 to 1000 nM; for `Cc1ccnc(N2C[C@H](C#N)N(c3cncc4ccccc34)C2=O)n1` (single isomer, unassigned) [Compound 53a]: 200 to 1000 nM.
On the same count and under the same terms, to `COc1ccc(C(F)(F)F)cc1N1C[C@@H](C#N)N(c2cncc3ccccc23)C1=O` (single isomer, unassigned) [Compound 17b] belongs over 1000 nM; to `N#C[C@@H]1CN(c2cccc(C(F)(F)F)n2)C(=O)N1c1cncc2ccccc12` (single isomer, unassigned) [Compound 51b], over 1000 nM.
Consider `Cn1cc(N2CC(C#N)N(c3cncc4ccccc34)C2=O)cn1` (racemic) [Compound 65, 3-(isoquinolin-4-yl)-1-(1-methyl-1H-pyrazol-4-yl)-2-oxoimidazolidine-4-carbonitrile], for which the half-maximal inhibitory concentration (IC50) under setting [1] fell in the range of 200 to 1000 nM.
In the case of `N#C[C@H]1CN(C2CN(S(=O)(=O)C(F)(F)F)C2)C(=O)N1c1cncc2ccccc12` (single isomer, unassigned) [Compound 129a], the IC50 under setting [1] is 20 to 200 nM.
In the case of `N#C[C@H]1CN(c2cccc(C(F)F)c2)C(=O)N1c1cncc2ccccc12` (single isomer, unassigned) [Compound 22a], under setting [1], the IC50 was under 20 nM.
Regarding `N#Cc1ccc(N2C[C@H](C#N)N(c3cncc4ccccc34)C2=O)cc1` (single isomer, unassigned) [Compound 50a], the half-maximal inhibitory concentration (IC50) under setting [1] was under 20 nM.
Regarding `N#C[C@H]1CN(c2ccc(C(F)F)nc2)C(=O)N1c1cncc2ccccc12` (single isomer, unassigned) [Compound 75a], the IC50 under setting [1] is under 20 nM.
As to `COc1ccc(F)cc1N1C[C@H](C#N)N(c2cncc3ccccc23)C1=O` (single isomer, unassigned) [Compound 105a], the IC50 under setting [1] was under 20 nM.
As for `N#C[C@H]1CN(c2ccc(C(F)(F)F)cn2)C(=O)N1c1cncc2ccccc12` (single isomer, unassigned) [Compound 97a], the IC50 under setting [1] is under 20 nM.
Turning to `N#C[C@@H]1CN(c2cccc(OC(F)(F)F)c2)C(=O)N1c1cncc2ccccc12` (single isomer, unassigned) [Compound 92b], under setting [1], the IC50 was 200 to 1000 nM.
Regarding `N#C[C@H]1CN(c2cnc(C(F)(F)F)cn2)C(=O)N1c1cncc2ccccc12` (single isomer, unassigned) [Compound 32a], the IC50 under setting [1] was under 20 nM.
For the compound `C[C@]1(C#N)CN(c2cccc(Cl)c2)C(=O)N1c1cncc2ccccc12` (single isomer, unassigned) [Compound 40a], the half-maximal inhibitory concentration (IC50) under setting [1] lay in the range of 200 to 1000 nM.
The same measure, in the same setting: the same measure for `COc1ccc(N2C[C@@H](C#N)N(c3cncc4ccccc34)C2=O)cn1` (single isomer, unassigned) [Compound 112b]: over 1000 nM; for `COc1cc(C(F)(F)F)ccc1N1C[C@@H](C#N)N(c2cncc3ccccc23)C1=O` (single isomer, unassigned) [Compound 12b]: over 1000 nM; for `N#C[C@H]1CN(c2cnnc(C(F)(F)F)c2)C(=O)N1c1cncc2ccccc12` (single isomer, unassigned) [Compound 13a]: under 20 nM.
In the case of `COc1cnc(C(F)(F)F)nc1N1C[C@H](C#N)N(c2cncc3ccccc23)C1=O` (single isomer, unassigned) [Compound 31a], the IC50 under setting [1] was 20 to 200 nM.
For the compound `COc1ncc(C(F)(F)F)cc1N1C[C@H](C#N)N(c2cncc3ccccc23)C1=O` (single isomer, unassigned) [Compound 100a], under setting [1], the IC50 is under 20 nM.
For `N#CC1CN(C2CCC(F)CC2)C(=O)N1c1cncc2ccccc12` (single isomer, unassigned) [Compound 121b], the IC50 (Rapid-Fire Assay IC50, Table 1B) is under 20 nM.
As to `COc1cc(N2C[C@H](C#N)N(c3cncc4ccccc34)C2=O)ccn1` (single isomer, unassigned) [Compound 23a], the IC50 under setting [1] is under 20 nM.
Take `N#C[C@@H]1CN(C2CCC(F)(F)CC2)C(=O)N1c1cncc2ccccc12` (single isomer, unassigned) [Compound 138b]: under setting [1], the half-inhibitory concentration (IC50) was over 1000 nM.
In the case of `COc1cc(Cl)cnc1N1C[C@H](C#N)N(c2cncc3ccccc23)C1=O` (single isomer, unassigned) [Compound 58a], under setting [1], the IC50 is 20 to 200 nM.
Regarding `N#C[C@@H]1CN(c2cc(F)cc(F)c2)C(=O)N1c1cncc2ccccc12` (single isomer, unassigned) [Compound 110b], under setting [1], the IC50 lay within 200 to 1000 nM.
Same read-out and setting: the same measure for `N#C[C@H]1CN([C@H]2C[C@H](C(F)(F)F)C2)C(=O)N1c1cncc2ccccc12` [Compound 45a, (R)-3-(isoquinolin-4-yl)-2-oxo-1-((1 r,3R)-3-(trifluoromethyl)cyclobutyl)imidazolidine-4-carbonitrile]: under 20 nM.
Still for that read-out and setting: the same measure for `N#C[C@H]1CN(c2cccc(F)c2)C(=O)N1c1cncc2ccccc12` (single isomer, unassigned) [Compound 76a]: under 20 nM; for `N#C[C@@H]1CN(c2ccc(C(F)F)nc2)C(=O)N1c1cncc2ccccc12` (single isomer, unassigned) [Compound 75b]: over 1000 nM; for `N#CC1CN(c2cccc(OC(F)F)c2)C(=O)N1c1cncc2ccccc12` (racemic) [Compound 89, 1-(3-(difluoromethoxy)phenyl)-3-(isoquinolin-4-yl)-2-oxoimidazolidine-4-carbonitrile]: 200 to 1000 nM.
Same read-out and setting: to `N#Cc1cccc(N2C[C@@H](C#N)N(c3cncc4ccccc34)C2=O)c1` (single isomer, unassigned) [Compound 52b] belongs 200 to 1000 nM; to `N#Cc1ccc(C(F)(F)F)cc1N1CC(C#N)N(c2cncc3ccccc23)C1=O` (racemic) [Compound 90, 1-(2-cyano-5-(trifluoromethyl)phenyl)-3-(isoquinolin-4-yl)-2-oxoimidazolidine-4-carbonitrile], under 20 nM; to `COc1ccc(C(F)(F)F)cc1N1C[C@@H](C#N)N(c2cncc3ccc(S(C)(=O)=O)cc23)C1=O` (single isomer, unassigned) [Compound 38b], over 1000 nM.
Regarding `N#C[C@H]1CN([C@H]2C[C@H](C3CC3)C2)C(=O)N1c1cncc2ccccc12` [Compound 124b, (R)-1-((1r,3R)-3-cyclopropylcyclobutyl)-3-(isoquinolin-4-yl)-2-oxoimidazolidine-4-carbonitrile], the concentration for half-maximal inhibition (IC50) under setting [1] was under 20 nM.
Take `CS(=O)(=O)c1ccc2cncc(N3C(=O)N(c4ccc(F)c(F)c4)C[C@@H]3C#N)c2c1` (single isomer, unassigned) [Compound 85a]: under setting [1], the IC50 was under 20 nM.
For the compound `Cc1ncccc1N1C[C@H](C#N)N(c2cncc3ccccc23)C1=O` (single isomer, unassigned) [Compound 74a], the concentration for half-maximal inhibition (IC50) under setting [1] fell in the range of 200 to 1000 nM.
`N#C[C@@H]1CN(c2cnc(C(F)(F)F)cn2)C(=O)N1c1cncc2ccccc12` (single isomer, unassigned) [Compound 32b]: under setting [1], the IC50 is over 1000 nM.
For the compound `N#C[C@@H]1CN(c2cnnc(C(F)(F)F)c2)C(=O)N1c1cncc2ccccc12` (single isomer, unassigned) [Compound 13b], the IC50 under setting [1] is over 1000 nM.
Take `COc1ccc(F)cc1N1C[C@@H](C#N)N(c2cncc3ccccc23)C1=O` (single isomer, unassigned) [Compound 105b]: the IC50 under setting [1] was over 1000 nM.

Source of the values: patent US20250092016A1, “COMPOUNDS AND COMPOSITIONS FOR THE TREATMENT OF CORONAVIRAL RELATED DISEASES” (priority 2021, published 2025).
